As usually defined, the IC50 is the midpoint of a concentration-inhibition curve. As usually defined, the amount remaining is the share of the starting amount still present when the sample was taken.

“Also recorded” adds a separate entry of the source.

For data set [1], the system named is B16F10 melanoma cells. Nature of the data set: Anti-melanogenic assay (melanin content) in B16F10 cells. It is filed as cell-based, Murine. To be noted: mean ± SD (n = 3). As for the experimental part: (§1) Murine melanoma B16F10 cells (obtained from DS Pharma Biomedical, Japan) were cultivated in Dulbecco's Modified Eagle Medium (DMEM), a liquid medium supplemented with 10% fetal bovine serum (FBS) and 1% penicillin/streptomycin. The cells were incubated at a temperature of 37 °C within a controlled humidified environment containing 5% CO2. To facilitate subculture, the cells were detached from the culture flask using trypsin solution. Subsequently, the cells were subjected to staining with trypan blue solution and quantified using a hemocytometer for further analysis. The final concentration of DMSO was 0.1% for all experiments.
Murine melanoma B16F10 cells were gently rinsed with phosphate-buffered saline (PBS) and detached from the cell tissue culture dish using trypsin. The cells were subsequently seeded in 24-well culture plates at a density of 5 × 10^4 cells per well and allowed to incubate for 24 h before being subjected to treatment with the experimental samples. Arbutin was used as a positive control. Following the treatment, the cells were further incubated for an additional 72 h, and the absorbance was measured at 510 nm using a microplate reader. Melanin production was expressed as a percentage relative to the control cells treated with DMSO. All experiments were conducted in triplicate. The IC50 value was calculated. The percentage of total melanin content was determined using the following equation: %Totalmelanincontent=Abstreated cells-Absblank of treated cells/Abscontrol-Absblank of control×100

Data set [2] has as its system B16F10 melanoma cells. As to the kind of experiment: Cytotoxicity assay (MTT) in B16F10 cells. It is filed as cell-based, Murine. To be noted: for Cytotoxicity: B16F10 melanoma cells, 72 h. As for the experimental part: as §1
Cytotoxicity was assessed through the utilization of the MTT assay. The cell culture was initiated in 24-well plates, with a seeding density of 5 × 10^4 cells per well. After treatment with samples for 72 h, 10 µL of MTT solution (5 mg/mL in PBS) were added to each well and incubated for additional 3 h. Then, supernatant was removed and DMSO (250 µL) was added to dissolve the formed formazan crystals. The absorbance was measured at 570 nm using a microplate reader. Cells treated solely with DMSO served as the control. All experiments were conducted in triplicate. The percentage of cell viability was determined using the following calculation: %Cellviability=Abstreated cells-Absblank of treated cells/Abscontrol-Absblank of control×100

Data set [3] in a line: Accelerated stability test, chemical stability by HPLC. To be noted: for remaining at 720 h: cosmetic formulation F1, after 30 days (1 month) at 45 °C. It is filed as physicochemical.
The test system of a further data set is melanocytes. On the set-up: method as in Tang et al. [15]. The settings on record: ref Tang et al. [15]; cited from earlier work.
[4] abbreviates: Mus musculus, B16-F10, 72 h treatment.

In the case of Quercetin-3-O-rhamnoside [Compound 1], 135 ± 2.1 µM corresponded to half-maximal inhibition in the data set on B16F10 melanoma cells [1] (72 h treatment) (IC50).
For `C[C@@H]1O[C@@H](Oc2cc(O)c3c(=O)c(O)c(-c4ccc(O)cc4)oc3c2)[C@H](O)[C@H](O)[C@H]1O` [Compound 3, kaempferol-7-O-α-L-rhamnopyranoside], in the data set with B16F10 melanoma cells [2] (B16F10 cells, b13: 72 h, concentrations as high as 1000 µM), the “Cytotoxicity (in words)” value is recorded as “absence of discernible cytotoxicity; also recorded: no significant toxicity was observed”. Besides, the Cytotoxicity in the data set with B16F10 melanoma cells [2] was greater than 1000 µM. For the same compound, the “Content in formulation F1” value in data set [3] (Day 1, HPLC) is reported as 0.0050 ± 0.0005 %w/w; in data set [3] (Day 30, 45 °C, HPLC), 0.0048 ± 0.0003 %w/w. For the same compound, the amount remaining at 720 h in data set [3] was greater than 90%. In addition, it took 23 ± 1.3 µM to reach half-maximal inhibition with B16F10 melanoma cells [1] (setting [4]) (IC50).
`CC1OC(Oc2cc(O)c3c(=O)c(OC4OC(CO)C(O)C(O)C4O)c(-c4ccc(O)cc4)oc3c2)C(O)C(O)C1O` [Compound 4, kaempferol-3-O-β-D-glucopyranosyl-7-O-α-L-rhamnopyranoside] came in with a Cytotoxicity with B16F10 melanoma cells [2] greater than 1000 µM. The same compound had a half-maximal inhibitory concentration (IC50) with B16F10 melanoma cells [1] (setting [4]) greater than 200 µM.
`OC[C@H]1O[C@@H](Oc2ccc(O)cc2)[C@H](O)[C@@H](O)[C@@H]1O` [Arbutin] registered a Cytotoxicity with B16F10 melanoma cells [2] greater than 1000 µM. In addition, the “Content in formulation F1” value worked out at 0.1991 ± 0.0004 %w/w in data set [3] (Day 1, HPLC) and 0.1940 ± 0.0057 %w/w in data set [3] (Day 30, 45 °C, HPLC). For the same compound, the “%Remaining in formulation F1” value in data set [3] (after 30 days (1 month) at 45 °C) is 97.44%. In data set [3], this compound showed an amount remaining at 720 h greater than 90%. This compound yielded an IC50 in the data set on B16F10 melanoma cells [1] (setting [4]) of 807.6 ± 2.9 µM.
For the compound `O=c1c(O)c(-c2ccc(O)cc2)oc2cc(O)cc(O)c12` [kaempferol], the “Effect on melanin production and melanocyte growth” value with melanocytes is “induce melanin production and melanocyte growth”.

The values above are taken from article PMC10716148 (Scientific Reports, 2023).
